Reference: patent publication US11944609B1, “Antifungal ionic liquid and Amphotericin B combination” (KING ABDULAZIZ UNIVERISTY, priority 2023, dated 2024)

Experiments:
[1] = tested on: C. auris; experiment: Antifungal susceptibility by broth microdilution (MIC) and SDA plating (MFC); assay type: cell-based, Candida auris; details: for Average MIC value / Average MFC value: compound alone, C. auris (2921); for Average MIC value: concentration giving 100% inhibition; for Average MFC value: no visible colonies on SDA after 24 h
Description: In this work, the antifungal activity of the ionic liquids (IPC4-IPC12) against C. auris was investigated in terms of minimum inhibitory concentration (MIC) and minimum fungicidal concentration (MFC). A stock solution of 20 mg/mL was prepared in 1% Dimethyl sulfoxide (DMSO; Sigma-Aldrich, USA). Fourteen different concentrations of test ILs were prepared by performing serial dilution in a flat bottom 96-well microtiter plate, followed by the addition of C. auris cells (0.5×103-2.5×10^3 cells/mL; 100 μL) which gave us the final test concentrations of ILs (5000-0.61 μg/mL). Amphotericin B was used as a positive control, 1% DMSO as a negative control, and drug-free control was used in each set of experiments. The optical density was determined at a wavelength of 600 nm using SpectraMax iD3 multi-mode microplate reader, and the concentration resulting in 100% inhibition was picked up as the MIC value. Post-MIC evaluation, MFC was estimated by administrating 10 μL of samples from the wells displaying MIC and beyond on a Sabouraud Dextrose Agar (SDA) plate. The plates were incubated at 35±2° C. for 24 h, and the concentration resulting in no visible colonies was documented as MFC value for respective ionic liquids.

[2] = tested on: C. auris; experiment: Checkerboard microdilution assay of ionic liquids with amphotericin B, with varied ratio isobolograms; assay type: cell-based, Candida auris; details: for MIC of ionic liquids in combination with AmB: 1:1 combination with amphotericin B; for Decrease in the MIC when used together: IPC8 + amphotericin B combination versus alone; for Average MIC values of individual compounds: alone; for FICb: fractional inhibitory concentration of amphotericin B; for FICa: fractional inhibitory concentration of the ionic liquid; for Type of interaction / ΣFIC: ionic liquid + amphotericin B
Description: The type of interaction between ionic liquids and amphotericin B against C. auris was evaluated by the checkerboard microdilution method. The concentrations of ionic liquids used ranged from 5000-0.61 μg/mL, and amphotericin B was 64-0.06 μg/mL. Subsequently, equal volumes (50 μL) of ionic liquids and amphotericin B were dispensed into pre-determined wells, which were further supplemented with C. auris cells (0.5×103-2.5×10^3 cells/mL; 100 μL) followed by incubation at 35±2° C. for 24 h. Also, each experiment included DMSO (1%) was added as negative control along with growth and sterility controls. […] The interaction between the test compounds and amphotericin B was deduced according to the calculated coefficient of the sum of fractional inhibitory concentrations (ΣFIC).
[formula] MICa=MIC of the ionic liquids; MICb=MIC of amphotericin B. The FICI values were interpreted as ΣFIC≤0.5, synergy; ΣFIC>0.5-≤1, additivity; ΣFIC>1-<2, no interaction; ΣFIC≥2, antagonism.

[3] = tested on: horse red blood cells (H-RBC); experiment: Haemolytic activity (cytotoxicity on red blood cells); assay type: cell-based
Description: The cytotoxicity of IPC8 on horse red blood cells (H-RBC) was checked by conducting a cytotoxicity assay. Briefly, the RBC was separated from the horse blood and was thoroughly washed with NaCl (150 mM) solution. Thereafter, RBC suspension (2%) was prepared in sterile PBS, followed by the addition (180 μL) to a microcentrifuge tube containing […] ([…]), the microcentrifuge tubes were kept aside for 45 min at 37° C. followed by centrifugation at 1300×g for 5 min. The supernatant (100 μL) was collected in a separate tube and mixed with 900 μL of sterile PBS. Aliquots (200 μL) were taken from each dilution and transferred to a 96-well flat bottom microtiter plate, and optical density was measured at 540 nm (SpectraMax iD3 multi-mode microplate reader, Molecular Devices). The negative control contained RBC suspension in PBS, and the positive control had RBC treated with 0.1% Triton X-100. To calculate the percentage of hemolysis below formula was used.

[4] = Viscosity measurement (RHEOSENSE MicroVisc viscometer); assay type: physicochemical; details: 298K, atmospheric pressure
[5] = Density measurement (Density Meter DMA 501); assay type: physicochemical; details: 298K, atmospheric pressure
Description: The uncertainties in the density measurements, considering the sample handling and purity, are determined to be with an accuracy of 0.0001 g/cm3.

[6] = tested on: C. auris; experiment: In vitro time-kill assay; assay type: cell-based, Candida auris; details: for Average log10 CFU/mL: healthy control 7.78
Description: The assay for determining the time-kill kinetics values of IPC8 against C. auris was carried out at various concentrations (½, 1, 2, and 4 times the MIC) against C. auris. The C. auris cell suspension with a starting inoculum of around 1×105 to 5×10^5 CFU/mL was incubated with/without IPC8 at 35° C.±2° C. and 150 rpm. Aliquots (100 μL) were taken out at predetermined time points (0, 2, 4, 6, 8, 12, and 24 h), and for determining CFU counts, the aliquots were serially diluted in sterile water and plate (20 μL) on SDA growth medium. The plates were incubated at 35° C.±2° C. for 24 to 48 h, and the number of colonies was counted using a colony counter. The experiment was performed in duplicate, and the result is articulated in log 10 viable CFU/mL.

[7] = nine ratios of IPC8 and amphotericin B (10:90 to 90:10), isobolograms

| Molecule | Average MIC value [1] | Average MFC value [1] | MIC of ionic liquids in combination with AmB [2] | Average MIC values of individual compounds [2] | FICb [2] | FICa [2] | Type of interaction [2] | ΣFIC [2] | Viscosity [4] | Density [5] | other results |
| --- | --- | --- | --- | --- | --- | --- | --- | --- | --- | --- | --- |
| CCCCCCCC[n+]1ccn2ccccc21.[Br-] [IPC8, 1-Octylimidazo[1,2-a] pyridinium bromide] | 4.88 µg/mL | 9.76 µg/mL | 1.22 µg/mL | 4.88 µg/mL | 0.125 | 0.25 | SYN (ΣFIC≤0.5, synergy) | 0.38 | 25.21 mPa | 1.0094 g/mL | Fold lower MIC and MFC values compared to other tested ionic liquids ([1]; IPC8 versus other ionic liquids): 3 to 8 fold; Decrease in the MIC when used together [2]: four-fold; Number of ratios (out of nine) with additive interaction [2, 7]: two; Number of ratios (out of nine) with strong synergistic effect [2, 7]: seven; Haemolysis ([3]; 156.25 μg/mL): 16.14%; Time to candidacidal endpoint ([6]; 2 times MIC): 12 h; Time to 50% reduction in the log10 CFU/mL from the inoculum ([6]; MIC): 12 h; Average log10 CFU/mL ([6]; after 24 hr exposure to MIC): 4.67 log10 CFU/mL; Average log10 CFU/mL ([6]; after 24 hr exposure to ½ MIC): 5.8 log10 CFU/mL; Time to 50% reduction in the number of CFU ([6]; four times MIC): 2 h; Time to candidacidal endpoint ([6]; four times MIC): 24 h; Nature of activity in time-kill curve ([6]; kill of ≥log 3, concentration- and time-dependent): fungicidal; Time to 50% reduction in the number of CFU ([6]; two times MIC): 4 h |
| triton X-100 [reference compound] | – | – | – | – | – | – | – | – | – | – | Haemolysis (observation) [3]: clear haemolysis |
| CCCCCCCCCCCC[n+]1ccn2ccccc21.[Br-] [IPC12, 1-Dodecylimidazo[1,2-a] pyridinium bromide] | 312.5 µg/mL | 625 µg/mL | 156.25 µg/mL | 312.5 µg/mL | 0.5 | 0.25 | ADD (ΣFIC>0.5-≤1, additivity) | 0.75 | 28.60 mPa | 1.0049 g/mL | – |
| CCCC[n+]1ccn2ccccc21.[Br-] [IPC4, 1-Butylimidazo[1,2-a] pyridinium bromide] | 78.12 µg/mL | 312.5 µg/mL | 39.06 µg/mL | 78.12 µg/mL | 1.0 | 0.5 | No INT (ΣFIC>1-<2, no interaction) | 1.5 | 4.14 mPa | 1.0310 g/mL | – |
| CCCCCC[n+]1ccn2ccccc21.[Br-] [IPC6, 1-Hexylimidazo[1,2-a] pyridinium bromide] | 39.06 µg/mL | 78.12 µg/mL | 9.76 µg/mL | 39.06 µg/mL | 0.25 | 0.24 | SYN (ΣFIC≤0.5, synergy) | 0.49 | 14.7 mPa | 1.0102 g/mL | – |
| C[C@@H]1[C@H](O)[C@@H](C)/C=C/C=C/C=C/C=C/C=C/C=C/C=C/[C@H](O[C@@H]2O[C@H](C)[C@@H](O)[C@H](N)[C@@H]2O)C[C@@H]2O[C@](O)(C[C@@H](O)C[C@@H](O)[C@H](O)CC[C@@H](O)C[C@@H](O)CC(=O)O[C@H]1C)C[C@H](O)[C@H]2C(=O)O [Amphotericin B] | 2.0 µg/mL | 4.0 µg/mL | – | 2.0 µg/mL | – | – | – | – | – | – | Average MIC value ([1]; listed as amphotericin B): 2 µg/mL; Average MFC value ([1]; listed as amphotericin B): 4 µg/mL; Decrease in the MIC when used together [2]: four-fold |
| CCCCCCCCCC[n+]1ccn2ccccc21.[Br-] [IPC10, 1-Decylimidazo[1,2-a] pyridinium bromide] | 78.12 µg/mL | 312.5 µg/mL | 19.53 µg/mL | 78.12 µg/mL | 0.5 | 0.25 | ADD (ΣFIC>0.5-≤1, additivity) | 0.75 | 27.20 mPa | 1.0081 g/mL | – |
